Key:
D1 = D1 (Homo sapiens (Human), UniProt P21728); settings: read-out: Ki (nM) D1
D2 = D2 (Homo sapiens (Human), UniProt P14416); assay: biochemical; settings: read-out: maximum inhibition D2
ERK2 = ERK2 (Mus musculus (Mouse), UniProt P63085); assay: CNS phosphoprotein profile, nucleus accumbens: ERK2; assay type: in vivo, mice; settings: 3 mg/kg
Procedure: (§1) A comprehensive molecular phosphorylation study is also carried out to examine the central nervous system (CNS) profile of the compounds of Example 1 and Example 2. The extent of protein phosphorylation for selected key central nervous system proteins is measured in mice nucleus accumbens.
(§2) Mice were killed 30 minutes to 2 hours post-injection by focused microwave cranial irradiation, which preserves brain phosphoprotein as it exists at the time of death. Nucleus accumbens was then dissected from each mouse brain, sliced and frozen in liquid nitrogen. Samples were further prepared for phosphoprotein analysis via SDS-PAGE electrophoresis followed by phosphoprotein-specific immunoblotting, as described in Zhu H, et al., Brain Res. 2010 Jun. 25; 1342:11-23. Phosphorylation at each site was quantified, normalized to total levels of the protein (non-phosphorylated), and expressed as percent of the level of phosphorylation in vehicle-treated control mice.

NR2B = NR2B (Mus musculus (Mouse), UniProt Q01097); assay: CNS phosphoprotein profile, nucleus accumbens: NR2B; assay type: in vivo, mice; settings: 3 mg/kg, at 30-60 minutes
Procedure: as §1, §2

5-HT2 receptor = 5-HT2 receptor (Mus musculus (Mouse), UniProt P35363); assay: DOI-Induced Head Twitch Model in Mice; assay type: in vivo; settings: po, p.o. 0.5 hr before DOI, read-out: EC50 (mg/kg, p.o.) for reducing DOI-induced head twitches
GluR1 = GluR1 (Mus musculus (Mouse), UniProt P23818); assay: CNS phosphoprotein profile, nucleus accumbens: GluR1; assay type: in vivo, mice; settings: 3 mg/kg
Procedure: as §1, §2

[1] = molecular target: TH (tyrosine hydroxylase) (Mus musculus (Mouse), UniProt P24529); assay: CNS phosphoprotein profile, nucleus accumbens: TH; assay type: in vivo, mice; settings: for increase in TH phosphorylation: Ser40, haloperidol at 2 mg/kg
Procedure: as §1, §2

Mice = assay: Mouse Marble-Burying Study (OCD Model); assay type: in vivo
Description: The marble burying test is used to measure repetitive and anxiety-related behavior in rodents. It is based on the observation that rats and mice will bury either harmful or harmless objects in their bedding, and it has been used as an animal model to measure the effect of pharmacological interventions in treatment of repetitive behavior disorders, such as OCD.
MPEP is a selective mGluR5 glutamate receptor antagonist. […] Mice in groups (1) are orally administered the vehicle, and mice in group (4) are given an intraperitoneal injection of MPEP just prior to the start of the test.
The test is conducted in rectangular cages with 4-5 cm of wood chip bedding in a room with the window shades lowered and the door closed to minimize distractions. Fifteen clean marbles are evenly spaced on top of the bedding in three rows of five marbles. One mouse is placed in each cage. The mouse and cage is left undisturbed for 30 minutes. At the end of the test, the mouse is removed and the number of marbles buried to at least ⅔ of their depth is counted.

in vivo [2] = settings: mouse
C57 mice = assay: Formalin Paw Test (Inflammatory Pain Model); assay type: in vivo
rats [3] = assay: Pulmonary function in rats; assay type: in vivo; settings: for RR (breaths/min): 60 minutes
in vivo [4] = settings: rat, iv, 1 mg/kg
rats [5] = assay: Gastrointestinal motility, activated charcoal transit in rats; settings: morphine 5 mg/kg SC
[6] = Cmpd, PO 3.0 mg/kg, 30 min prior to formalin
[7] = Cmpd, SC 0.3 mg/kg, 30 min prior to formalin
[8] = Cmpd, SC 1.0 mg/kg, 30 min prior to formalin
[9] = Cmpd, SC 3.0 mg/kg, 30 min prior to formalin
[10] = morphine 5 mg/kg SC, 30 min prior to formalin

D2, sequence (P14416 with tags, fused parts or gaps limits assumed): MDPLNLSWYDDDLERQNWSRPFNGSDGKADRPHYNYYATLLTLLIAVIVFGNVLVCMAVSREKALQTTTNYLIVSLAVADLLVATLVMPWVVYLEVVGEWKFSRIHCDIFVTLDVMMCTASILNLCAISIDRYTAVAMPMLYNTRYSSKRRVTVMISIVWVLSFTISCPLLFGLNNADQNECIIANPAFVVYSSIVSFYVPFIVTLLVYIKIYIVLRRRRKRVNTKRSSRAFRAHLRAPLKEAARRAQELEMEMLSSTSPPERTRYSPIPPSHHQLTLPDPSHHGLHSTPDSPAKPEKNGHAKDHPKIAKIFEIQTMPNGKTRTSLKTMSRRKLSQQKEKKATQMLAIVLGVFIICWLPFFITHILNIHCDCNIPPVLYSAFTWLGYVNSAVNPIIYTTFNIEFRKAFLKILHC
NR2B, sequence (Q01097 27-1482 limits assumed): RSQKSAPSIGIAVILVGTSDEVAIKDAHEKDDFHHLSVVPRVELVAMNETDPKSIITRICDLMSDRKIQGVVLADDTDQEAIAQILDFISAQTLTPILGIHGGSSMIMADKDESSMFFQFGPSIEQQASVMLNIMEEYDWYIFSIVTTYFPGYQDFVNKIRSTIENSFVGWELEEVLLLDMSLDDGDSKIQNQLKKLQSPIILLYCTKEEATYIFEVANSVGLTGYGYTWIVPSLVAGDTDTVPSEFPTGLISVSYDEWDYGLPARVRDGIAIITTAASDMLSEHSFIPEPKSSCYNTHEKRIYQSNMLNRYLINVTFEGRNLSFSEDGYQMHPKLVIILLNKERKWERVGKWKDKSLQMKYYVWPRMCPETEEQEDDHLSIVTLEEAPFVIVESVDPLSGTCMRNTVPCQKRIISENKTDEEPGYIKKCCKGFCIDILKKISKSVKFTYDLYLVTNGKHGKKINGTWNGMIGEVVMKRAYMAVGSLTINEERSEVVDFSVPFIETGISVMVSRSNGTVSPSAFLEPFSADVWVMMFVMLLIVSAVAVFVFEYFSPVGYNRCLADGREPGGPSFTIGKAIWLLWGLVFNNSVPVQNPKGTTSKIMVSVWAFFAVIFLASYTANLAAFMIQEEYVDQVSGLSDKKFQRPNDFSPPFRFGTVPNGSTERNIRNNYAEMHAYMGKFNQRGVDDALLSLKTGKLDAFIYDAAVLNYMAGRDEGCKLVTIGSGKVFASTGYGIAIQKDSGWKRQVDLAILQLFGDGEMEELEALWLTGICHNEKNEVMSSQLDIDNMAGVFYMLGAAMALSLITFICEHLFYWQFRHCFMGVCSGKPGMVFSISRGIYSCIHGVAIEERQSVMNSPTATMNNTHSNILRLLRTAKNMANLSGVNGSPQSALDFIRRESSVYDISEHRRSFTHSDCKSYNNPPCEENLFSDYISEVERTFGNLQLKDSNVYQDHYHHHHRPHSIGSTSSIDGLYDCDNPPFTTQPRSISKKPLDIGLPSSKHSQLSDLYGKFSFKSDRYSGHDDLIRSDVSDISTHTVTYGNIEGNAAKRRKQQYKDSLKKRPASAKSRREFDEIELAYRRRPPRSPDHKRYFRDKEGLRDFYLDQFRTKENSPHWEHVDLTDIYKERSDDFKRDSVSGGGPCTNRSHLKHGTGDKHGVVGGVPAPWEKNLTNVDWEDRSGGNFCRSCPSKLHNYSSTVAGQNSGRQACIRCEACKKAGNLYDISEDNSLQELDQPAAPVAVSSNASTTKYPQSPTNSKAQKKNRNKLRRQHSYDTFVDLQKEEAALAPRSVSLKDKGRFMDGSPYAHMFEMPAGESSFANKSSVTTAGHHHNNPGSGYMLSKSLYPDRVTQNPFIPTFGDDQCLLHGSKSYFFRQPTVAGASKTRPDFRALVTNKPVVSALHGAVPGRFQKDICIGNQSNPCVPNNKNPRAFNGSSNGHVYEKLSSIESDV
GluR1, sequence (P23818 19-907 limits assumed): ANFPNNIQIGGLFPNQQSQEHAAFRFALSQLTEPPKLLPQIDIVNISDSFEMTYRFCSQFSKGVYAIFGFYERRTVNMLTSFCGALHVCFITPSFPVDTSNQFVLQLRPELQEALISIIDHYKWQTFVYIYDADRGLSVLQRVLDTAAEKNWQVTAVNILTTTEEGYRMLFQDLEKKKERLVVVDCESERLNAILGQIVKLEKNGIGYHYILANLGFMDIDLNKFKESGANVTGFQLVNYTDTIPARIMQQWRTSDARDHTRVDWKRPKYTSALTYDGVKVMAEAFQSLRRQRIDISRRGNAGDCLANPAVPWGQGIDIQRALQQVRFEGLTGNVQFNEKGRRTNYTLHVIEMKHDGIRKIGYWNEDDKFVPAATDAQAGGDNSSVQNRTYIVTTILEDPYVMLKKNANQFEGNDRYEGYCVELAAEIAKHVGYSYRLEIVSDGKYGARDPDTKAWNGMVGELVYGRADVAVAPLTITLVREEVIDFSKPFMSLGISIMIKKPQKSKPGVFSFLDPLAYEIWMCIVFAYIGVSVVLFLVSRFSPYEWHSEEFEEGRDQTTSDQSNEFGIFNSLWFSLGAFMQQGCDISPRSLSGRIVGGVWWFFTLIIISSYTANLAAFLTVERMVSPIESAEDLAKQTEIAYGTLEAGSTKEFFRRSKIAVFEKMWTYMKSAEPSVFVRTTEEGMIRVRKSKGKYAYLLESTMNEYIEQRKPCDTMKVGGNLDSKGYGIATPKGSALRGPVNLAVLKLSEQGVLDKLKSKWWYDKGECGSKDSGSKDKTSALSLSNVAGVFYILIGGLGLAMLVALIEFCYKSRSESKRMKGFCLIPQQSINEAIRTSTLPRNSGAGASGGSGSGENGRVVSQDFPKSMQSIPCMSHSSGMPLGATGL

## O=C1CN2c3c(cccc3[C@@H]3CN(CCCC(=O)c4ccc(F)cc4)CC[C@@H]32)N1 [Example 1]
D1
  Ki: 22 nM
D2
  inhibition at […]: 47%
ERK2
  ERK2 phosphorylation at Thr183 and Tyr185: slight decrease
NR2B
  effect on NR2B phosphorylation at Tyr1472: neither the compound of Example 1 nor of Example 2 has a significant effect
5-HT2 receptor
  ED50: 0.23 mg/kg
GluR1
  GluR1 phosphorylation at Ser845: slight increase
[1]; 3 mg/kg, at 30 minutes or 60 minutes
  effect on tyrosine hydroxylase phosphorylation at Ser40: neither the compound of Example 1 nor of Example 2 has a significant effect

## O=C1CN2c3c(cccc3[C@@H]3CN(CCCOc4ccc(F)cc4)CC[C@@H]32)N1 [Example 2, (6bR,10aS)-8-(3-(4-fluorophenoxy)propyl)-6b,7,8,9,10,10a-hexahydro-1H-pyrido[3′,4′:4,5]pyrrolo[1,2,3-de]quinoxalin-2(3H)-one]
Mice; 0.3 mg/kg orally 30 minutes prior, of fifteen marbles, 30 min
  Marbles Buried: 9.3
5-HT2 receptor
  ED50: 0.44 mg/kg
In vivo [2]; brain, po, 10 mg/kg
  Tmax: 15 min
In vivo [2]; brain, sc, 0.1 mg/kg
  Tmax: 60 min
In vivo [2]; plasma, po, 10 mg/kg
  Tmax: 15 min
In vivo [2]; plasma, sc, 0.1 mg/kg
  Tmax: 30 min
C57 mice; [6]
  Mean Behavior Rating (0-4), 0-10 Min: 0.9
  Mean Behavior Rating (0-4), 0-6 min: 1.5
  Mean Behavior Rating (0-4), 11-40 min: 0.8
  Mean Behavior Rating (0-4), 16-40 min: 0.9
C57 mice; [7]
  Mean Behavior Rating (0-4), 0-6 min: 2.3
  Mean Behavior Rating (0-4), 11-40 min: 1.0
  Mean Behavior Rating (0-4), 16-40 min: 1.2
C57 mice; [8]
  Mean Behavior Rating (0-4), 0-10 Min: 1.3
  Mean Behavior Rating (0-4), 0-6 min: 1.9
  Mean Behavior Rating (0-4), 11-40 min: 1.0
  Mean Behavior Rating (0-4), 16-40 min: 1.1
C57 mice; [9]
  Mean Behavior Rating (0-4), 0-10 Min: 0.8
  Mean Behavior Rating (0-4), 0-6 min: 1.3
  Mean Behavior Rating (0-4), 11-40 min: 0.1
  Mean Behavior Rating (0-4), 16-40 min: 0.1
C57 mice; mouse, in vivo
  Mean Behavior Rating (0-4), 0-10 Min: 1.5
Rats [3]; 0.3 mg/kg s.c.
  RR (breaths/min): 181 breaths/min
Rats [3]; 1.0 mg/kg s.c.
  RR (breaths/min): 203 breaths/min
Rats [3]; 3.0 mg/kg s.c.
  RR (breaths/min): 190 breaths/min
Rats [3]; 0.3, 1.0 and 3.0 mg/kg s.c., 0, 15, 60, 120, and 240 minutes
  respiratory rate, tidal volume and minute volume compared to vehicle control: no significant differences
In vivo [4]
  bioavailability: 100%

## Cc1cccc(C#Cc2ccccc2)n1 [MPEP, 2-methyl-6-(phenylethynyl)pyridine, reference compound]
Mice; 20 mg/kg intraperitoneal just prior to test, positive control
  Marbles Buried: 0.2

## CN1CC[C@]23c4c5ccc(O)c4O[C@H]2[C@@H](O)C=C[C@H]3[C@H]1C5 [Morphine, morphine, reference compound]
C57 mice; [10]
  Mean Behavior Rating (0-4), 0-10 Min: 1.1
  Mean Behavior Rating (0-4), 0-6 min: 1.7
  Mean Behavior Rating (0-4), 11-40 min: 0.2
  Mean Behavior Rating (0-4), 16-40 min: 0.2
Rats [5]
  reduction in gastric motility: ~50%

## O=C(CCCN1CCC(O)(c2ccc(Cl)cc2)CC1)c1ccc(F)cc1 [haloperidol]
[1]
  increase in TH phosphorylation: greater than 400%

## Cc1nc2n(c(=O)c1CCN1CCC(c3noc4cc(F)ccc34)CC1)CCCC2 [risperidone]
[1]
  increase in TH phosphorylation: greater than 500%
